According to ChEMBL document CHEMBL5634121, “Discovery of novel G9a/GLP covalent inhibitors for the treatment of triple-negative breast cancer” (Eur J Med Chem, 2023):
Calls of active or inactive are those of the source. No cut-off for these calls is given here.

Legend:
MDA-MB-231 [1] = assay: Induction of apoptosis in human MDA-MB-231 cells assessed as early apoptotic cells at 10 uM incubated for 72 hrs by Annexin V and PI staining based flow cytometry analysis (reference value: 0.92 %); type: functional
[2] = Cytotoxicity against human L02 cells assessed as reduction in cell viability incubated for 2 days by MTT assay; type: toxicity, cell-based
[3] = Mean residence time in ICR mouse at 2 mg/kg, iv measured upto 12 hrs by LC-MS/MS analysis; type: ADME, organism-based; conditions: in vivo
[4] = biological target: T1, Histone-lysine N-methyltransferase EHMT1/EHMT2 (Homo sapiens) (UniProt Q9H9B1+Q96KQ7); assay: Inhibition of G9a/GLP in human MDA-MB-231 cells assessed as reduction in H3K9 dimethylation at 20 uM incubated for 1 day followed by compound washout and measured after 1 to 4 days; type: cell-based
T1 sequence (Q9H9B1 whole entry, looked up, one chain of several): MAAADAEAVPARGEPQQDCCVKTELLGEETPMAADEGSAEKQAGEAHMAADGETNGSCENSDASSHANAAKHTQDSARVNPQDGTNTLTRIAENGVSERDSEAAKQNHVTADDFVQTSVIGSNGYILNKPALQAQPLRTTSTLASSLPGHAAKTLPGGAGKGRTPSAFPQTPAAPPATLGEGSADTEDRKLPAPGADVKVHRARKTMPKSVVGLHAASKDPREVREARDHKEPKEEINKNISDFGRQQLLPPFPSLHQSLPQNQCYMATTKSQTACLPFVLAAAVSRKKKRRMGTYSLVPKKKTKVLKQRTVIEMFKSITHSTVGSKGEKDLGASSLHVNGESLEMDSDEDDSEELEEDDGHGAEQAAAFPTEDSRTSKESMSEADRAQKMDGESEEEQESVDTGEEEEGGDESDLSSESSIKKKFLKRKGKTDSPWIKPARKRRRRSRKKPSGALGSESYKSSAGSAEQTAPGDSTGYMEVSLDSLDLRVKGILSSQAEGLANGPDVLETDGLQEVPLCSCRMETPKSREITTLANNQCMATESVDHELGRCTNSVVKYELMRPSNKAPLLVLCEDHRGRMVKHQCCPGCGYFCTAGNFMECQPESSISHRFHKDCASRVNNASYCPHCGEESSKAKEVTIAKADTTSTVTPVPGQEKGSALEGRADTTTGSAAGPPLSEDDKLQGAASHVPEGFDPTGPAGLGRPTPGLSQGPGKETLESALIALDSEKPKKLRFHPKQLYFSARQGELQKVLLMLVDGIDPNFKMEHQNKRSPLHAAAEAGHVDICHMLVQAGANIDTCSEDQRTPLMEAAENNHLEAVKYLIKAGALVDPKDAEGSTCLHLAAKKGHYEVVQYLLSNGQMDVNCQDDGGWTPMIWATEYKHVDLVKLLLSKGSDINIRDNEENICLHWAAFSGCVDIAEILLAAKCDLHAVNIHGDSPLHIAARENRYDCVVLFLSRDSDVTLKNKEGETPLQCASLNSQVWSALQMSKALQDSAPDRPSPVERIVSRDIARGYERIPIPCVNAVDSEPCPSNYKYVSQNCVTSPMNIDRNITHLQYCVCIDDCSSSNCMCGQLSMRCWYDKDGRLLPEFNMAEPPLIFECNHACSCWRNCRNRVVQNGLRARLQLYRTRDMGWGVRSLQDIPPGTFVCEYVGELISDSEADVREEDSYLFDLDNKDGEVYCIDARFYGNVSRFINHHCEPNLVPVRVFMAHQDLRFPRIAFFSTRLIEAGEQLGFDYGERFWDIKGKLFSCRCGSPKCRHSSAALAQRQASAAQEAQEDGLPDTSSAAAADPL

MDA-MB-231 [5] = assay: Induction of apoptosis in human MDA-MB-231 cells assessed as late apoptotic cells at 10 uM incubated for 72 hrs by Annexin V and PI staining based flow cytometry analysis (reference value: 0.45 %); type: functional
MDA-MB-231 [6] = assay: Induction of apoptosis in human MDA-MB-231 cells assessed as necrotic cells at 5 uM incubated for 72 hrs by Annexin V and PI staining based flow cytometry analysis (reference value: 0.32 %); type: functional
MDA-MB-231 [7] = assay: Induction of apoptosis in human MDA-MB-231 cells assessed as early apoptotic cells at 5 uM incubated for 72 hrs by Annexin V and PI staining based flow cytometry analysis (reference value: 0.92 %); type: functional
[8] = biological target: T2, Histone-lysine N-methyltransferase EHMT2 (Homo sapiens, UniProt Q96KQ7); assay: Inhibition of G9a (unknown origin)
T2 sequence (Q96KQ7 whole entry): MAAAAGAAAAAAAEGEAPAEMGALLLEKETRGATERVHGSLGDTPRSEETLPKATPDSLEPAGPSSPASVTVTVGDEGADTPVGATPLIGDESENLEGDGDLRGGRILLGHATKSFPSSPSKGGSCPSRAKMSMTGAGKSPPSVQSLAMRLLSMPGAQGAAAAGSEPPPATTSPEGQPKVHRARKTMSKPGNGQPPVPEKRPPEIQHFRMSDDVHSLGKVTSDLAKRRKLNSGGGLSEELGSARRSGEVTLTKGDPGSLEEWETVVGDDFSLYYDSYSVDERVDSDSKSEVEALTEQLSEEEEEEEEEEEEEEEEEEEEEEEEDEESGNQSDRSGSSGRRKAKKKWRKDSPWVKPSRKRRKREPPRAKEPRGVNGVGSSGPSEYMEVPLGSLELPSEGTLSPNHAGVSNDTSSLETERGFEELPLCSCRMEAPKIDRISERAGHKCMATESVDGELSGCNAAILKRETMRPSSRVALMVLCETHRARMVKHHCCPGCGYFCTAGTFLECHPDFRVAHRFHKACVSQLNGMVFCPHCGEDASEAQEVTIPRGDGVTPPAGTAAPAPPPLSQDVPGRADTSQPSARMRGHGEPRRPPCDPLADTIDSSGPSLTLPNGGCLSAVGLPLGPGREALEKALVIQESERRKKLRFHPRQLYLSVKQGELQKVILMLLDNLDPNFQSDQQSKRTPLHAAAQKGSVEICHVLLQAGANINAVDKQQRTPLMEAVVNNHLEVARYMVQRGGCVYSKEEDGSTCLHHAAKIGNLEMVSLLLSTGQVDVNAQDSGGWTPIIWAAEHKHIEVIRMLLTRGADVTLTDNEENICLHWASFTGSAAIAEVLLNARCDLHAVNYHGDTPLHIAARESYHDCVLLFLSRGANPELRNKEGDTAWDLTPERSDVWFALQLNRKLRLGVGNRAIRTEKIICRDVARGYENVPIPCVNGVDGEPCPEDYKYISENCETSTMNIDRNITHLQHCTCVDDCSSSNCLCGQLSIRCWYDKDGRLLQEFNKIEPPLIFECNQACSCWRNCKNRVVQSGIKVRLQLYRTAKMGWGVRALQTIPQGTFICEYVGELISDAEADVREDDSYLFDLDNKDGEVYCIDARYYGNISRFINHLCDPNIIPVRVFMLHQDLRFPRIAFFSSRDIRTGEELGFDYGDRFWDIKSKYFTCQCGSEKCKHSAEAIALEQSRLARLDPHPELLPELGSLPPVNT

[9] = Cmax in ICR mouse at 2 mg/kg, iv measured upto 12 hrs by LC-MS/MS analysis; type: ADME, organism-based; conditions: in vivo
MDA-MB-231 [10] = assay: Antiproliferative activity against human MDA-MB-231 cells after 5 days by MTT assay; type: functional, cell-based; conditions: MDA-MB-231, 120 h
MDA-MB-231 [11] = assay: Induction of apoptosis in human MDA-MB-231 cells assessed as viable cells at 10 uM incubated for 72 hrs by Annexin V and PI staining based flow cytometry analysis (reference value: 98.31 %); type: functional; conditions: read-out: Activity
[12] = AUC(0 to infinity) in ICR mouse at 2 mg/kg, iv measured upto 12 hrs by LC-MS/MS analysis; type: ADME, organism-based; conditions: in vivo
[13] = Tmax in ICR mouse at 2 mg/kg, iv measured upto 12 hrs by LC-MS/MS analysis; type: ADME, organism-based; conditions: in vivo
[14] = AUC(0 to t) in ICR mouse at 2 mg/kg, iv measured upto 12 hrs by LC-MS/MS analysis; type: ADME, organism-based; conditions: in vivo
[15] = biological target: T1, Histone-lysine N-methyltransferase EHMT1/EHMT2 (Homo sapiens); assay: Inhibition of G9a/GLP in human MDA-MB-231 cells assessed as reduction in H3K9 dimethylation incubated for 3 days by Western blotting analysis; type: cell-based; conditions: dose 2.5-20 µM, time 3.0 day
MDA-MB-231 [16] = assay: Antiproliferative activity against human MDA-MB-231 cells incubated for 3 to 5 days by MTT assay; type: functional, cell-based; conditions: time 3-5 day
MDA-MB-231 [17] = assay: Induction of apoptosis in human MDA-MB-231 cells assessed as late apoptotic cells at 20 uM incubated for 72 hrs by Annexin V and PI staining based flow cytometry analysis (reference value: 0.45 %); type: functional

**Q.** Which Activity (MDA-MB-231 [1]) does the source give for C=CC(=O)Nc1cccc(-c2nc(NC3CCN(C)CC3)c3cc(OC)c(OC)cc3n2)c1 here?
**A.** 3.7%

**Q.** What about the IC50 at 2 days [2] of the same compound?
**A.** 10300 nM

**Q.** What about the MRT [3] of the same compound?
**A.** 2.3 h

**Q.** What about the inhibition [4] of the same compound?
**A.** Active

**Q.** And the Activity (MDA-MB-231 [5])?
**A.** 5.89%

**Q.** And the Activity (MDA-MB-231 [6])?
**A.** 0.93%

**Q.** What about the Activity (MDA-MB-231 [7]) of the same compound?
**A.** 1.44%

**Q.** What about the IC50 [8] of the same compound?
**A.** 1220 nM

**Q.** What about the Cmax [9] of the same compound?
**A.** 911 ng/mL

**Q.** And the IC50 (MDA-MB-231 [10])?
**A.** 598 nM

**Q.** What about the viability at 10 µM (MDA-MB-231 [11]) of the same compound?
**A.** 89.1%

**Q.** And the AUC(0-inf) [12]?
**A.** 1690 ng·h/mL

**Q.** And the Tmax [13]?
**A.** 0.42 h

**Q.** What about the AUC(0-t) at 12 h [14] of the same compound?
**A.** 1650 ng·h/mL

**Q.** And the inhibition [15]?
**A.** Dose-Dependent Effect

**Q.** And the Activity (MDA-MB-231 [16])?
**A.** Dose-Dependent Effect

**Q.** And the Activity (MDA-MB-231 [17])?
**A.** 34.86%
